Reference: ChEMBL document CHEMBL1201862, “PubChem BioAssay data set” (2004)
Activity calls are given as the source filed them.

Columns and labels:
[1] = target: T1, Serine/threonine-protein phosphatase (Candida dubliniensis (strain CD36 / CBS 7987 / NCPF 3949 / NRRLY-17841) (Yeast), UniProt B9W6M3); experiment: blockers of CaCl2-induced CDRE-lacZ signaling – S. cerevisiae, luminescence, secondary, dose response (AID 2388); assay type: functional, cell-based;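 also: yeast reporter cells carrying a calcineurin-responsive lacZ construct stimulated with calcium chloride; luminescent beta-galactosidase reporter signal in whole cells rather than isolated phosphatase activity; potency for inhibition where a drop in reporter signal means calcineurin blockade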
T1 sequence (B9W6M3 whole entry): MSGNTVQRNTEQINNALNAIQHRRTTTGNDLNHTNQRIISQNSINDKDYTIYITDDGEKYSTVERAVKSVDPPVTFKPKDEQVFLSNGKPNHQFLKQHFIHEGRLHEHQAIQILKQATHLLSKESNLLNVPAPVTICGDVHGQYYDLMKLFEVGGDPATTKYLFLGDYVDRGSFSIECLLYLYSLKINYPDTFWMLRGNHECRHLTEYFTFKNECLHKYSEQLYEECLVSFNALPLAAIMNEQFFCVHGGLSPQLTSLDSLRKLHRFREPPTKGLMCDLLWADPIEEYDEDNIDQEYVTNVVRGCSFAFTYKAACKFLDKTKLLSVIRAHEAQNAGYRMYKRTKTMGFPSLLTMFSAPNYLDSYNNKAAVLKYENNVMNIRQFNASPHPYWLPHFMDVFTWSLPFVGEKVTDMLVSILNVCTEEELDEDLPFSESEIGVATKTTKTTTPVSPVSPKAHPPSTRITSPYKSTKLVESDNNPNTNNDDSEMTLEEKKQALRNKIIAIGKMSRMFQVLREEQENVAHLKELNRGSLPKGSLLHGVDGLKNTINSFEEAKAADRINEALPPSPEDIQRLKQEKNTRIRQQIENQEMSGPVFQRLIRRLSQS

[2] = A Cell Based Secondary Assay to Explore Cytotoxicity in HepG2 Cells of Compounds that Modulate Mycobacterium tuberculosis in Media Containing Glycerol versus Media without Glycerol (2).; assay type: functional
INS1 = experiment: INS-1E survival protection against cytokine death – cell-based, luminescence, retest, dose response (AID 449756); assay type: functional; settings: Rattus norvegicus;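 also: cell death triggered by IL-1 beta plus TNF-alpha plus IFN-gamma mixture; protective hits raise ATP signal compared with cytokine alone wells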
[3] = fluconazole-exposed Candida albicans growth modulators – fluorescence, retest, confirmation (AID 2467); assay type: functional, cell-based
[4] = NIH-3T3 fibroblast cytotoxicity, dose response, cytotoxicity control, cell-based, fluorescence, Alamar Blue, secondary assay (AID 2327); assay type: functional;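 also: NIH-3T3 mouse fibroblasts cultured with fluconazole at 8 µg/mL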
[5] = target: ATP-dependent molecular chaperone HSP82 (Candida albicans (strain WO-1) (Yeast), UniProt C4YTQ8); experiment: steroid-induced GRE reporter decrease in yeast – S. cerevisiae, luminescence, Hsp90 inhibitor project, dose response (AID 2400); assay type: functional, cell-based;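 also: beta-galactosidase luminescence from glucocorticoid response element reporter as proxy for Hsp90 function; inhibitor potency where signal loss means Hsp90 inhibition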
ATP-dependent molecular chaperone HSP82, sequence (C4YTQ8 whole entry): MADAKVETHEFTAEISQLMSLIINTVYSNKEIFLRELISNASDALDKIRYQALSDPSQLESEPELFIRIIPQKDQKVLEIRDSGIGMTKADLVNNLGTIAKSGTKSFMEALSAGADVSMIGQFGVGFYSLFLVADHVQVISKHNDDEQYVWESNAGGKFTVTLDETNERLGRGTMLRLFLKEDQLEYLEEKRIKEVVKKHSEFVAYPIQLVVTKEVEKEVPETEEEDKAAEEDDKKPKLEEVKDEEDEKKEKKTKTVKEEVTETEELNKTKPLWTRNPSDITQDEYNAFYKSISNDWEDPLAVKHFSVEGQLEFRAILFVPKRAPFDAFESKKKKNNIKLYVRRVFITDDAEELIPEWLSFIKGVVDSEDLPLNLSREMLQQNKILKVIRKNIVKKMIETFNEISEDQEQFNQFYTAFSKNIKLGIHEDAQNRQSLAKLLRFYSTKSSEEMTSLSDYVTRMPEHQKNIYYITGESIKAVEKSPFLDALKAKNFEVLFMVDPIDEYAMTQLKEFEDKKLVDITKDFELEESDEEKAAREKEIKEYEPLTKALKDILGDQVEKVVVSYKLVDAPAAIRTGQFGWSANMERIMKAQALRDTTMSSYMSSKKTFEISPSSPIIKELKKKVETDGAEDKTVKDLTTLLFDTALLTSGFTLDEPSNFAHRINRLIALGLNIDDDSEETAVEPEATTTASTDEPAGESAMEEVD

[6] = microbe, parasite or virus in culture; assay type: functional; settings: Mycobacterium tuberculosis
[7] = Vero cell cytotoxicity, cytotoxicity control for M. tuberculosis inhibitor project, purified and synthesized samples, set 3 (AID 504684); assay type: functional
[8] = A Cell Based Secondary Assay to Explore Cytotoxicity in THP-1 Cells of Compounds that Modulate Mycobacterium tuberculosis in Media Containing Glycerol versus Media without Glycerol (2).; assay type: functional
HEK293 [9] = experiment: membrane integrity loss in HEK cells – cell-based, fluorescence, cytotoxicity control for IDE activator project, dose response (AID 588440); assay type: functional; settings: Homo sapiens;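 also: cytotoxicity by LDH release measuring loss of membrane integrity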
Insulin-degrading enzyme [10] = target: T2, Insulin-degrading enzyme (Homo sapiens, UniProt P14735); experiment: cellular IDE activation of Abeta substrate cleavage – fluorescence polarization, HEK cells, dose response (AID 588439); assay type: functional, cell-based
T2 sequence (P14735 whole entry): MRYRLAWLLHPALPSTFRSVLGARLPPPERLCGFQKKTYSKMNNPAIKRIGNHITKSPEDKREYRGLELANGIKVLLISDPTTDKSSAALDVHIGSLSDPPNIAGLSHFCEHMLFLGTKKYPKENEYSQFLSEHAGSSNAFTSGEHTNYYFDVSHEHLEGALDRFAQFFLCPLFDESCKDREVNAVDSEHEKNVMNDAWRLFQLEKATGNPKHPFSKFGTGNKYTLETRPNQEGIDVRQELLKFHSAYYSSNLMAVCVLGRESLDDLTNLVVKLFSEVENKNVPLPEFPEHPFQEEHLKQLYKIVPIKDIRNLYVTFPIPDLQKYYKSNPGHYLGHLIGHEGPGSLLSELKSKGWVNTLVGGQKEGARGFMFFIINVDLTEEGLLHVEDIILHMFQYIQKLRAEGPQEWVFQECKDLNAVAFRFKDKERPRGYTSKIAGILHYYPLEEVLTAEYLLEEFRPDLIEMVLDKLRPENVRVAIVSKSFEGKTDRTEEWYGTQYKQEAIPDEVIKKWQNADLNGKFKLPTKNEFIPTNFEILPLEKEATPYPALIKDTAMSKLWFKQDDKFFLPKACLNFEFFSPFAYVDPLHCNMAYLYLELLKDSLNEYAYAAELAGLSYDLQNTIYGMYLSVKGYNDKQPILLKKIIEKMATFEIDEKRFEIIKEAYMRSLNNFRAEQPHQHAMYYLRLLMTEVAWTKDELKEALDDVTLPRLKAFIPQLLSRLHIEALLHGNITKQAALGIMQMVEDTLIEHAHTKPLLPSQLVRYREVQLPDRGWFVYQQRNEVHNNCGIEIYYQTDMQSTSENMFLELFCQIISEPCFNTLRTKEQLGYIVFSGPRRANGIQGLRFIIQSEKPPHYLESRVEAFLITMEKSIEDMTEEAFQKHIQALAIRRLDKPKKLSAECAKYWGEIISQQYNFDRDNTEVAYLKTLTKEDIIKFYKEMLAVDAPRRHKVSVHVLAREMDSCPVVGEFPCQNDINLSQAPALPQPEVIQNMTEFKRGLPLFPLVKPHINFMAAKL

HEK293 [11] = experiment: optical interference in Abeta FP readout, dose response, artefact control for IDE activator project, biochemical, fluorescence polarization (AID 588442); assay type: functional, cell-based; settings: Homo sapiens
Insulin-degrading enzyme [12] = target: T2, Insulin-degrading enzyme; experiment: recombinant IDE activation, cell-free – biochemical, fluorescence polarization, counter-screen for IDE activator project, dose response (AID 588681)
Caspase-3 = target: T3, Caspase-3 (Homo sapiens, UniProt P42574); experiment: inhibition of recombinant caspase-3 activity – biochemical, luminescence, set 2, selectivity assay for SENP protease inhibitor project, SAR follow-up (AID 588599); assay type: functional
T3 sequence (P42574 whole entry): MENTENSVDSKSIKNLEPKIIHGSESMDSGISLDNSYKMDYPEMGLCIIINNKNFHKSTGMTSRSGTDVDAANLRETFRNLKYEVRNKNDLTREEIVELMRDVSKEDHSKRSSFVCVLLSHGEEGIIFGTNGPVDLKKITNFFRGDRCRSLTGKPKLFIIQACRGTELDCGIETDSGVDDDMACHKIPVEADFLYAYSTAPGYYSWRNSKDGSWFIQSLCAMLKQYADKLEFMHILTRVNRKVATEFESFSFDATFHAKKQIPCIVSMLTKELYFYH

[13] = target: T4, Sentrin-specific protease 8 (Homo sapiens, UniProt Q96LD8); experiment: inhibition of sentrin protease 8 – biochemical, luminescence, set 2, SAR follow-up (AID 588601); assay type: functional
T4 sequence (Q96LD8 whole entry): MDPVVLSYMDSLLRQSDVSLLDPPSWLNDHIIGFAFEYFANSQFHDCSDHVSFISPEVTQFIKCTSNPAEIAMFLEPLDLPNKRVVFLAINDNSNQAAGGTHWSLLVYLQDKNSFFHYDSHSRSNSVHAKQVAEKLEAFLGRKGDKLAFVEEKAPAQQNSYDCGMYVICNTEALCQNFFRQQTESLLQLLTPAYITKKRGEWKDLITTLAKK

[14] = target: T5, Sentrin-specific protease 7 (Homo sapiens, UniProt Q9BQF6); experiment: inhibition of human SENP7 cleavage activity – biochemical, luminescence, set 2, SAR follow-up (AID 588600); assay type: functional
T5 sequence (Q9BQF6 whole entry): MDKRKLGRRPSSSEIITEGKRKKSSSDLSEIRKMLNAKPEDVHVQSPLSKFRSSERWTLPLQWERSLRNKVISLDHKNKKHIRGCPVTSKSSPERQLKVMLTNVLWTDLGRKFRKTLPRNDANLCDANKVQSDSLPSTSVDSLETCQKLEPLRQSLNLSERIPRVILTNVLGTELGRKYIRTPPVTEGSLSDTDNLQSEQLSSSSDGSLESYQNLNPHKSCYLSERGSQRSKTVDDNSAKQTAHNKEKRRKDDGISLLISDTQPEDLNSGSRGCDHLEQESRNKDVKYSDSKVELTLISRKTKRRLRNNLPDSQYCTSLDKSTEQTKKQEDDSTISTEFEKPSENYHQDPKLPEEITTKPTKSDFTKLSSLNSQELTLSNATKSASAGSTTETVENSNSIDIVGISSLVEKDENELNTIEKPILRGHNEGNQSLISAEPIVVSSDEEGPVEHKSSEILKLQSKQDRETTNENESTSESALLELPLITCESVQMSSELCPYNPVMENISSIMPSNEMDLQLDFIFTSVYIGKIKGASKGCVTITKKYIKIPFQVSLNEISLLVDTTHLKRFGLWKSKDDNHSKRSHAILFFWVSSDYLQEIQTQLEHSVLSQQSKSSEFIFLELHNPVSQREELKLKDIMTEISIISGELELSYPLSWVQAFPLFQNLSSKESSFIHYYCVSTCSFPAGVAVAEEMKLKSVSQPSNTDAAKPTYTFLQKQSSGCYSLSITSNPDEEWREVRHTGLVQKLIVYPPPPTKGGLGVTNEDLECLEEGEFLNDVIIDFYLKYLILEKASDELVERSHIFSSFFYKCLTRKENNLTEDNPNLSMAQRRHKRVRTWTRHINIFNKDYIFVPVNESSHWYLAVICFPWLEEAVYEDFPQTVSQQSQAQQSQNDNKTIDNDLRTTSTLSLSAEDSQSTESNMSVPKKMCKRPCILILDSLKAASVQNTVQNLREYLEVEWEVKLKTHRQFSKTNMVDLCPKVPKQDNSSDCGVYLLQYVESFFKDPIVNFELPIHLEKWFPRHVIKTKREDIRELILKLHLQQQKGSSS

[15] = target: T6, Sentrin-specific protease 6 (Homo sapiens, UniProt Q9GZR1); experiment: inhibition of human SENP6 catalytic domain – biochemical, luminescence, set 2, SAR follow-up (AID 588598); assay type: functional
T6 sequence (Q9GZR1 whole entry): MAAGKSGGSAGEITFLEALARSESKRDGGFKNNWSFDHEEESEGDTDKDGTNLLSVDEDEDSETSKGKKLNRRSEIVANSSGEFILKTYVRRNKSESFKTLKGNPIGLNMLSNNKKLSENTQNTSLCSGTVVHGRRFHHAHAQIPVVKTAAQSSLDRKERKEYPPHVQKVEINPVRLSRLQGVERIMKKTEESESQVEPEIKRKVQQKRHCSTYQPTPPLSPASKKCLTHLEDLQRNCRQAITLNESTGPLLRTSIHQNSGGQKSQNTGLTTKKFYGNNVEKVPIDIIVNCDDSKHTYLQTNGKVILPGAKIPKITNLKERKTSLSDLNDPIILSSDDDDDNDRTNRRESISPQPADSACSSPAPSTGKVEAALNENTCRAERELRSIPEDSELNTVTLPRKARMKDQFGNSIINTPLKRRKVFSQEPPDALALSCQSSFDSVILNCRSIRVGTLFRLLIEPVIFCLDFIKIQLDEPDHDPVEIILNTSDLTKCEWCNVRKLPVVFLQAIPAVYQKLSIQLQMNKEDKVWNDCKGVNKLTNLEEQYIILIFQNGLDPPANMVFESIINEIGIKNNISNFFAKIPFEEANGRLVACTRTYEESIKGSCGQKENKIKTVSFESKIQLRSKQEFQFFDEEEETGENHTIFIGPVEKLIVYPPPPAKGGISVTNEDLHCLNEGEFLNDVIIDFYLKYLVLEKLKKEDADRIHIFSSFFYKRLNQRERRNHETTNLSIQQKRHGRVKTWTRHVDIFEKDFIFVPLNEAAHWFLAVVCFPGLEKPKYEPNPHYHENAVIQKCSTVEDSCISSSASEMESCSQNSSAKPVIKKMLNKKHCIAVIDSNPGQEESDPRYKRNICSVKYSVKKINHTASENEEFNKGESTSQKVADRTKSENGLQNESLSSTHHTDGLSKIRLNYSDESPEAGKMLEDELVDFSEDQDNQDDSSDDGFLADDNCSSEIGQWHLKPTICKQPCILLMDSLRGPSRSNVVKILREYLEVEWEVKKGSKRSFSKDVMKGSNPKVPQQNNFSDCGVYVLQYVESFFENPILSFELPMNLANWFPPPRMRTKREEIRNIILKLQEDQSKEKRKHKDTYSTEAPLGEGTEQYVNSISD

Cc1ccc2ccc3ccc(C)nc3c2n1 [NEOCUPROINE]
EC50 [1]: > 180 µM (inactive)
CC50 [2]: 0.21 µM (active)
AC50 (INS1): < 0.195 µM (active)
EC50 [3]: 0.133 µM (active)
EC50 [4]: 147 µM (active)
EC50 [5]: > 150 µM (inactive)
CC50 [6]: 36.4 µM (active)
CC50 [7]: 1.23 µM (active)
CC50 [8]: < 0.2 µM (active)

O=C(CN1CCN(CN2C(=O)NC3(CCCCCC3)C2=O)CC1)Nc1ccc(F)cc1
IC50 (HEK293 [9]): > 89.2 µM (inactive)
EC50 (Insulin-degrading enzyme [10]): > 54.7 µM (inactive)
EC50 (HEK293 [11]): > 55.9 µM (inactive)
EC50 (Insulin-degrading enzyme [12]): > 54.7 µM (inactive)

Cc1sc2ncnc(N3CCC(C(=O)Nc4nc5c(F)cc(F)cc5s4)CC3)c2c1C
IC50 (Caspase-3): > 99 µM (inactive)
IC50 [13]: > 99 µM (inactive)
IC50 [14]: > 99 µM (inactive)
IC50 [15]: > 99 µM (inactive)
